In general, Ki refers to a dissociation constant, usually derived from enzyme kinetics or from competition with a known ligand.

The structures appear in SMILES notation.

These results are taken from patent US7858630B2, “D3 and 5-HT2A receptor modulators” (Hoffmann-La Roche Inc., priority 2008, dated 2010).

Assay [1] addresses T1, human serotonin 5-HT2A receptor (Homo sapiens, UniProt P28223).
T1 construct: expressed in transfected cells; host or cells: HEK-293 EBNA cells, transient transfection; membrane preparation
In words: Radioligand binding ([3H]-ketanserin) to membranes of HEK-293 EBNA cells expressing human 5-HT2A receptor. Conditions: 1.1 nM [3H]-ketanserin, HEK-293 EBNA membranes, 1 h at RT. A digest of the protocol:
(§1)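 Membranes from HEK-293 EBNA cells transiently transfected with the receptor were incubated 1 h at RT with ten test concentrations (10 μM–0.1 nM) and ~0.7 nM [3H]-spiperone (D2), 0.5 nM [3H]-spiperone (D3) or 1.1 nM [3H]-ketanserin (5-HT2A). Nonspecific binding was set with 10 μM spiperone, bound radioactivity was read by filtration and scintillation, and Ki was taken from IC50 via Cheng-Prusoff.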

Assay [2] deals with T2, human dopamine D3 receptor (Homo sapiens, UniProt P35462).
T2 construct: expressed in transfected cells; host or cells: HEK-293 EBNA cells, transient transfection; membrane preparation
T2 sequence (P35462 whole entry): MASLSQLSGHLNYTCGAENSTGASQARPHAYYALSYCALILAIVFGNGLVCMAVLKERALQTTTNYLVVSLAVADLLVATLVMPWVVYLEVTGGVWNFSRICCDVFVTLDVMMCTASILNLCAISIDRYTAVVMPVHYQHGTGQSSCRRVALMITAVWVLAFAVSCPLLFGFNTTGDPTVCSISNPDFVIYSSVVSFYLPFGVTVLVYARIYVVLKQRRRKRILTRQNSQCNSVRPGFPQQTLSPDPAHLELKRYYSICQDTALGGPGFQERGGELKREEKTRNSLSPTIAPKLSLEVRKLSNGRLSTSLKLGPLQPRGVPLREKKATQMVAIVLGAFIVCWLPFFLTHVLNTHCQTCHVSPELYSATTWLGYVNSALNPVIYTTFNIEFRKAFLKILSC
In words: Radioligand binding ([3H]-spiperone) to membranes of HEK-293 EBNA cells expressing human D3 receptor. Conditions: human D3, 0.5 nM [3H]-spiperone, HEK-293 EBNA membranes, 1 h at RT. A digest of the protocol:
as §1

The target of assay [3] is T3, human dopamine D2 receptor (Homo sapiens, UniProt P14416).
T3 construct: expressed in transfected cells; host or cells: HEK-293 EBNA cells, transient transfection; membrane preparation
T3 sequence (P14416 whole entry): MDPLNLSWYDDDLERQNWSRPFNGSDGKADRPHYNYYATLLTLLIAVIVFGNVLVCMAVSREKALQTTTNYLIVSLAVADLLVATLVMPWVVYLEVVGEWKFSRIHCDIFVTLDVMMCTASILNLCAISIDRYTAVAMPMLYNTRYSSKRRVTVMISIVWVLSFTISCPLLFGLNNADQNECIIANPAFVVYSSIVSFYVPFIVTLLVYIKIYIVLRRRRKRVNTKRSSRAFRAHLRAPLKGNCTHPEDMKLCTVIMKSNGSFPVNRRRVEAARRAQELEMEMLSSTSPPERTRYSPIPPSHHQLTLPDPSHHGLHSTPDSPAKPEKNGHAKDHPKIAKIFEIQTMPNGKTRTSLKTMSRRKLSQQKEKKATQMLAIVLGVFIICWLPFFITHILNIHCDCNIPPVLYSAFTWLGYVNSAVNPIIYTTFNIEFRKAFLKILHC
In words: Radioligand binding ([3H]-spiperone) to membranes of HEK-293 EBNA cells expressing human D2 receptor. Particulars: human D2, 0.7 nM [3H]-spiperone, HEK-293 EBNA membranes, 1 h at RT. A digest of the protocol: as §1

T1 sequence (P28223 whole entry): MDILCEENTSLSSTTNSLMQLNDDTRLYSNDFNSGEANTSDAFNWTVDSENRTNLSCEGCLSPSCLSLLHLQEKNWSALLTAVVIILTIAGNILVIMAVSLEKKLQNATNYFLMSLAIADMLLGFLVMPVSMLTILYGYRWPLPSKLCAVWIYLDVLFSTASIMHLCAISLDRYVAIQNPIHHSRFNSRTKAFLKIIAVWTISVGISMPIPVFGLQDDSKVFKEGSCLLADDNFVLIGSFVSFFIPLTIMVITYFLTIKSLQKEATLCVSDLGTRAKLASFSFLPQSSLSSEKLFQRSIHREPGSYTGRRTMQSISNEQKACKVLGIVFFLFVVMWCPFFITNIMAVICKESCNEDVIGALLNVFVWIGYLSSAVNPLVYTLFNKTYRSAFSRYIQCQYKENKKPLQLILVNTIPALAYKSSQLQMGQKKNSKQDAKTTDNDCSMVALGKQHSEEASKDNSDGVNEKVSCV

For `CO[C@H]1CC[C@H](CC(=O)N[C@H]2CC[C@H](CCN3CCN(c4noc5ccc(F)cc45)CC3)CC2)CC1` [Example 6, N-trans-(4-{2-[4-(5-Fluoro-benzo[d]isoxazol-3-yl)-piperazin-1-yl]-ethyl}-cyclohexyl)-2-trans-(4-methoxy-cyclohexyl)-acetamide], the Ki is 26.3 nM in assay [1], 6.44 nM in assay [2] and 11800 nM in assay [3].
As to `O=C(C[C@H]1CC[C@H](O)CC1)N[C@H]1CC[C@H](CCN2CCN(c3noc4cc(Cl)ccc34)CC2)CC1` [Example 43, N-trans-(4-{2-[4-(6-Chloro-benzo[d]isoxazol-3-yl)-piperazin-1-yl]-ethyl}-cyclohexyl)-2-trans-(4-hydroxy-cyclohexyl)-acetamide], the Ki in assay [1] worked out at 3.22 nM; in assay [2], 12.5 nM; in assay [3], 2920 nM.
For `CO[C@@H]1CC[C@@H](CC(=O)N[C@H]2CC[C@H](CCN3CCN(c4noc5cc(F)c(F)cc45)CC3)CC2)C1` (relative stereo) [Example 65, N-trans-(4-{2-[4-(5,6-Difluoro-benzo[d]isoxazol-3-yl)-piperazin-1-yl]-ethyl}-cyclohexyl)-2-trans-(3-methoxy-cyclopentyl)-acetamide], in that order: 4.4 nM, 7.67 nM and 822 nM.
Consider `O=C(N[C@H]1CC[C@H](CCN2CCN(c3noc4cc(Cl)ccc34)CC2)CC1)C1(O)CC1` [Example 38, 1-Hydroxy-cyclopropanecarboxylic acid N-trans-(4-{2-[4-(6-chloro-benzo[d]isoxazol-3-yl)-piperazin-1-yl]-ethyl}-cyclohexyl)-amide], for which the Ki in assay [1] stood at 8.19 nM; in assay [2] it was 12.5 nM; in assay [3] it was 314 nM.
Take `COC1CCC(C(=O)N[C@H]2CC[C@H](CCN3CCN(c4noc5ccc(F)cc45)CC3)CC2)CC1` (stereo partly drawn) [Example 13, 4-Methoxy-cyclohexanecarboxylic acid N-trans-(4-{2-[4-(5-fluoro-benzo[d]isoxazol-3-yl)-piperazin-1-yl]-ethyl}-cyclohexyl)-amide]: the Ki in assay [1] worked out at 35.1 nM; in assay [2], 41.4 nM; in assay [3], 3440 nM.
For the compound `CC(C)OC1CCC(CC(=O)N[C@H]2CC[C@H](CCN3CCN(c4noc5ccc(F)cc45)CC3)CC2)CC1` (mixture of isomers) [Example 10, N-trans-(4-{2-[4-(5-Fluoro-benzo[d]isoxazol-3-yl)-piperazin-1-yl]-ethyl}-cyclohexyl)-2-(4-isopropoxy-cyclohexyl)-acetamide], the inhibition constant (Ki) in assay [1] worked out at 10.4 nM; in assay [2] it was 6.6 nM; in assay [3], 11500 nM.
In the case of `CC(C)(O)CC(=O)N[C@H]1CC[C@H](CCN2CCN(c3noc4ccc(F)cc34)CC2)CC1` [Example 11, N-trans-(4-{2-[4-(5-Fluoro-benzo[d]isoxazol-3-yl)-piperazin-1-yl]-ethyl}-cyclohexyl)-3-hydroxy-3-methyl-butyramide], the Ki amounted to 24 nM in assay [1], 4.82 nM in assay [2] and 482 nM in assay [3].
On to `CCC(=O)N[C@H]1CC[C@H](CCN2CCN(c3noc4cc(Cl)c(F)cc34)CC2)CC1` [Example 70, N-trans-(4-{2-{4-(6-Chloro-5-fluoro-benzo[d]isoxazol-3-yl)-piperazin-1-yl]-ethyl}-cyclohexyl)-propionamide], for which the inhibition constant (Ki) in assay [1] was 68.1 nM; in assay [2] it was 7.15 nM; in assay [3] it was 852 nM.
On to `CO[C@H]1CC[C@H](CC(=O)N[C@H]2CC[C@H](CCN3CCN(c4noc5cc(Cl)ccc45)CC3)CC2)CC1` [Example 31, N-trans-(4-{2-[4-(6-Chloro-benzo[d]isoxazol-3-yl)-piperazin-1-yl]-ethyl}-cyclohexyl)-2-trans-(4-methoxy-cyclohexyl)-acetamide], for which the Ki in assay [1] came out at 2.9 nM; in assay [2], 8.89 nM; in assay [3], 4990 nM.
For `COC(C)C(=O)N[C@H]1CC[C@H](CCN2CCN(c3noc4cc(F)c(C)cc34)CC2)CC1` (stereo partly drawn) [Example 119, N-trans-(4-{2-[4-(6-Fluoro-5-methyl-benzo[d]isoxazol-3-yl)-piperazin-1-yl]-ethyl}-cyclohexyl)-2-methoxy-propionamide], the inhibition constant (Ki) in assay [1] worked out at 10 nM; in assay [2] it was 53 nM; in assay [3], 2270 nM.
Take `O=C(N[C@H]1CC[C@H](CCN2CCN(c3noc4cc(Cl)ccc34)CC2)CC1)C1CCOCC1` [Example 32, Tetrahydro-pyran-4-carboxylic acid N-trans-(4-{2-[4-(6-chloro-benzo[d]isoxazol-3-yl)-piperazin-1-yl]-ethyl}-cyclohexyl)-amide]: the values for the Ki in assay [1], in assay [2] and in assay [3] were 2.37 nM, 15.9 nM and 3040 nM, respectively.
For `O=C(CO)N[C@H]1CC[C@H](CCN2CCN(c3noc4cc(F)c(Cl)cc34)CC2)CC1` [Example 87, N-trans-(4-{2-[4-(5-Chloro-6-fluoro-benzo[d]isoxazol-3-yl)-piperazin-1-yl]-ethyl}-cyclohexyl)-2-hydroxy-acetamide], in that order: 8.6 nM, 9.97 nM and 401 nM.
For `CCS(=O)(=O)N[C@H]1CC[C@H](CCN2CCN(c3noc4cc(F)c(F)cc34)CC2)CC1` [Example 68, Ethanesulfonic acid N-trans-(4-{2-[4-(5,6-difluoro-benzo[d]isoxazol-3-yl)-piperazin-1-yl]-ethyl}-cyclohexyl)-amide], the inhibitory constant (Ki) came out at 17.8 nM in assay [1], 16.4 nM in assay [2] and 641 nM in assay [3].
As to `O=C(CC1CCOCC1)N[C@H]1CC[C@H](CCN2CCN(c3noc4ccc(F)cc34)CC2)CC1` [Example 8, N-trans-(4-{2-[4-(5-Fluoro-benzo[d]isoxazol-3-yl)-piperazin-1-yl]-ethyl}-cyclohexyl)-2-(tetrahydro-pyran-4-yl)-acetamide], the Ki in assay [1] is 27.2 nM; in assay [2] it was 7.71 nM; in assay [3], 1710 nM.
In the same order, the values of `COC(=O)N[C@H]1CC[C@H](CCN2CCN(c3noc4cc(F)c(Cl)cc34)CC2)CC1` [Example 91, N-trans-(4-{2-[4-(5-Chloro-6-fluoro-benzo[d]isoxazol-3-yl)-piperazin-1-yl]-ethyl}-cyclohexyl)-carbamic acid methyl ester] are 1.84 nM, 0.58 nM and 197 nM.
For `O=C(CC1CCOCC1)N[C@H]1CC[C@H](CCN2CCN(c3noc4cc(Cl)ccc34)CC2)CC1` [Example 40, N-trans-(4-{2-[4-(6-Chloro-benzo[d]isoxazol-3-yl)-piperazin-1-yl]-ethyl}-cyclohexyl)-2-(tetrahydro-pyran-4-yl)-acetamide], in that order: 11.3 nM, 7.02 nM and 1080 nM.
With `O=C(CC1CCOCC1)N[C@H]1CC[C@H](CCN2CCN(c3noc4cc(Cl)c(F)cc34)CC2)CC1` [Example 72, N-trans-(4-{2-[4-(6-Chloro-5-fluoro-benzo[d]isoxazol-3-yl)-piperazin-1-yl]-ethyl}-cyclohexyl)-2-(tetrahydro-pyran-4-yl)-acetamide], the inhibitory constant (Ki) in assay [1] came to 36.6 nM; in assay [2], 24.3 nM; in assay [3], 11300 nM.
For the compound `COC[C@H]1C[C@H](CC(=O)N[C@H]2CC[C@H](CCN3CCN(c4noc5ccc(F)cc45)CC3)CC2)C1` [Example 27, N-trans-(4-{2-[4-(5-Fluoro-benzo[d]isoxazol-3-yl)-piperazin-1-yl]-ethyl}-cyclohexyl)-2-trans-(3-methoxymethyl-cyclobutyl)-acetamide], the Ki in assay [1] came out at 26.2 nM; in assay [2], 10 nM; in assay [3] it was 718 nM.
In the same order, the values of `CC(=O)N[C@H]1CC[C@H](CCN2CCN(c3noc4ccccc34)CC2)CC1` [Example 2, N-trans-{4-[2-(4-benzo[d]isoxazol-3-yl-piperazin-1-yl)-ethyl]-cyclohexyl}-acetamide] are 4.96 nM, 8.88 nM and 272 nM.
For `O=C(CO)N[C@H]1CC[C@H](CCN2CCN(c3noc4ccccc34)CC2)CC1` [Example 4, N-trans-{4-[2-(4-Benzo[d]isoxazol-3-yl-piperazin-1-yl)-ethyl]-cyclohexyl}-2-hydroxy-acetamide], in that order: 3.36 nM, 16.5 nM and 517 nM.
In the same order, the values of `CO[C@H]1CC[C@H](C(=O)N[C@H]2CC[C@H](CCN3CCN(c4noc5cc(Cl)ccc45)CC3)CC2)CC1` [Example 54, 4-trans-Methoxy-cyclohexanecarboxylic acid N-trans-(4-{2-[4-(6-chloro-benzo[d]isoxazol-3-yl)-piperazin-1-yl]-ethyl}-cyclohexyl)-amide] are 8.3 nM, 50.2 nM and 3850 nM.
For the compound `COCC(=O)N[C@H]1CC[C@H](CCN2CCN(c3noc4cc(F)c(C)cc34)CC2)CC1` [Example 107, N-trans-(4-{2-[4-(6-Fluoro-5-methyl-benzo[d]isoxazol-3-yl)-piperazin-1-yl]-ethyl}-cyclohexyl)-2-methoxy-acetamide], the Ki in assay [1] is 11.2 nM; in assay [2] it was 20 nM; in assay [3], 674 nM.
Take `CC(C)OC1CCC(CC(=O)N[C@H]2CC[C@H](CCN3CCN(c4noc5cc(Cl)ccc45)CC3)CC2)CC1` (mixture of isomers) [Example 51, N-trans-(4-{2-[4-(6-Chloro-benzo[d]isoxazol-3-yl)-piperazin-1-yl]-ethyl}-cyclohexyl)-2-(4-isopropoxy-cyclohexyl)-acetamide]: the Ki in assay [1] is 3.37 nM; in assay [2], 10.4 nM; in assay [3], 3020 nM.
